In the NIST ThermoML archive (doi:10.1021/je034144f):
Numbers after ± are expanded uncertainties.

Details: Liquid, Ebulliometric method (Recirculating still)

## CC#N [acetonitrile]
277.92 K
  vapor or sublimation pressure: 4.323 ± 0.011 kPa
278.62 K
  vapor or sublimation pressure: 4.49 ± 0.01 kPa
281.57 K
  vapor or sublimation pressure: 5.247 ± 0.012 kPa
285.38 K
  vapor or sublimation pressure: 6.385 ± 0.012 kPa
287.67 K
  vapor or sublimation pressure: 7.165 ± 0.013 kPa
290.65 K
  vapor or sublimation pressure: 8.296 ± 0.013 kPa
292.75 K
  vapor or sublimation pressure: 9.182 ± 0.014 kPa
295.78 K
  vapor or sublimation pressure: 10.6 ± 0.015 kPa
300.82 K
  vapor or sublimation pressure: 13.37 ± 0.016 kPa
303.81 K
  vapor or sublimation pressure: 15.27 ± 0.018 kPa
309.64 K
  vapor or sublimation pressure: 19.64 ± 0.021 kPa
315.43 K
  vapor or sublimation pressure: 24.97 ± 0.024 kPa
321.12 K
  vapor or sublimation pressure: 31.31 ± 0.027 kPa
325.02 K
  vapor or sublimation pressure: 36.39 ± 0.032 kPa
331.27 K
  vapor or sublimation pressure: 45.91 ± 0.036 kPa
336.41 K
  vapor or sublimation pressure: 55.17 ± 0.042 kPa
341.18 K
  vapor or sublimation pressure: 65.07 ± 0.048 kPa
345.57 K
  vapor or sublimation pressure: 75.44 ± 0.05 kPa
349.33 K
  vapor or sublimation pressure: 85.31 ± 0.059 kPa
352.88 K
  vapor or sublimation pressure: 95.59 ± 0.063 kPa
354.55 K
  vapor or sublimation pressure: 100.75 ± 0.068 kPa
354.67 K
  vapor or sublimation pressure: 101.12 ± 0.07 kPa
357.56 K
  vapor or sublimation pressure: 110.61 ± 0.073 kPa
360.94 K
  vapor or sublimation pressure: 122.63 ± 0.079 kPa
361.61 K
  vapor or sublimation pressure: 125.13 ± 0.079 kPa
368.97 K
  vapor or sublimation pressure: 155.33 ± 0.089 kPa
371.74 K
  vapor or sublimation pressure: 168.12 ± 0.099 kPa
373.17 K
  vapor or sublimation pressure: 175.04 ± 0.11 kPa
378.81 K
  vapor or sublimation pressure: 204.59 ± 0.12 kPa
384.11 K
  vapor or sublimation pressure: 235.79 ± 0.14 kPa
394.29 K
  vapor or sublimation pressure: 306.28 ± 0.16 kPa
405.24 K
  vapor or sublimation pressure: 399.5 ± 0.2 kPa
415.21 K
  vapor or sublimation pressure: 502.67 ± 0.24 kPa
423.68 K
  vapor or sublimation pressure: 605.6 ± 0.28 kPa
431.12 K
  vapor or sublimation pressure: 708.99 ± 0.31 kPa
437.3 K
  vapor or sublimation pressure: 804.86 ± 0.35 kPa
443.5 K
  vapor or sublimation pressure: 910.82 ± 0.38 kPa
449.6 K
  vapor or sublimation pressure: 1025.5 ± 0.42 kPa
455.74 K
  vapor or sublimation pressure: 1152 ± 0.46 kPa
461.87 K
  vapor or sublimation pressure: 1290.2 ± 0.51 kPa
468.37 K
  vapor or sublimation pressure: 1450.3 ± 0.55 kPa
474.05 K
  vapor or sublimation pressure: 1602.6 ± 0.6 kPa
479.15 K
  vapor or sublimation pressure: 1749.8 ± 0.65 kPa
484.77 K
  vapor or sublimation pressure: 1923.9 ± 0.7 kPa
490.37 K
  vapor or sublimation pressure: 2110.8 ± 0.76 kPa
495.75 K
  vapor or sublimation pressure: 2303.5 ± 0.81 kPa
501.48 K
  vapor or sublimation pressure: 2523.7 ± 0.88 kPa
506.92 K
  vapor or sublimation pressure: 2748 ± 0.94 kPa
512.61 K
  vapor or sublimation pressure: 2999.2 ± 1 kPa
518.01 K
  vapor or sublimation pressure: 3254.1 ± 1.1 kPa
523.15 K
  vapor or sublimation pressure: 3512.9 ± 1.1 kPa
527.79 K
  vapor or sublimation pressure: 3760.4 ± 1.2 kPa
532.08 K
  vapor or sublimation pressure: 4001.5 ± 1.3 kPa
535.03 K
  vapor or sublimation pressure: 4174.6 ± 1.3 kPa
